Data on nine compounds can be found in patent publication US10406236B2, “Single wall nanotube constructs and uses thereof” (Sloan-Kettering Institute for Cancer Research, priority 2005, dated 2019).

For one data set, the system named is Daudi (CD20+, specific). The settings on record: reference (33); cited from earlier work.
For another data set, the system named is GFP1/FFLuc1 Daudi tumor. Nature of the data set: Biodistribution and tumor targeting in disseminated lymphoma model. Format: in vivo. The settings on record: 24 h after i.v. injection, tumor-bearing scid mice. The procedure: The specific SWNT-rituximab-^111In*DOTA construct or control SWNT-HuM195-^111In*DOTA (Lintuzumab) construct was prepared by adding 111-185 MBq of acidic 111In chloride to 0.50 mg of SWNT-rituximab-DOTA or SWNT-HuM195-DOTA (50 g/L) in MFW and 0.050 mL of 3 M ammonium acetate to yield a pH 5.5 solution. The reaction mixture was maintained at ambient temperature for 30 min and then purified using a 10DG column with 1% HSA/0.9% NaCl. The radiochemical purity of SWNT-rituximab-DOTA or SWNT-HuM195-DOTA was 95% and the radiolabeled Rituximab was 98% as determined by the ITLC-SG methods described herein.
The biodistribution and tumor targeting specificity of SWNT-rituximab-^111In*DOTA was evaluated against different controls in a murine model of disseminated lymphoma (33) using the GFP1/FFLuc1 Daudi cell line. The tumor was introduced by injecting 5 million cells into each of the female C.B.-17 severe combined immunodeficiency (scid) mice (8- to 10-wk old; Taconic Farms) intravenously via the retroorbital sinus route. Tumor growth in mice was determined by BLI using a Xenogen IVIS Optical Imaging System (Xenogen Corp.). Imaging was performed on mice that received an intraperitoneal injection of 3 mg of D-Luciferin (Xenogen) per mouse. On day 28 after tumor infusion, the tumor-bearing mice were separated into 4 groups; an additional 2 groups of scid mice with no tumor were included as control. […]

The next data set has as its system CD8+ T cells. Nature of the data set: WT-1 peptide specific CTL responses in vivo (ELISPOT). The settings on record: mouse. The procedure: Mouse footpads of C57BL/6 or BALB/c, depending on the peptide specificity, are injected with the various OVA constructs in the presence or absence of adjuvant (Titermax, Sigma) along with appropriate control groups. Serum from immunized animals is obtained via retro-orbital bleeding and assayed for SWNT specific Abs using the ELISA protocol described above.
HA-Multiscreen plates were coated with rat-anti-mouse IFN-g antibody (MabTech). CD8+ T cells isolated and purified from the paplitial lymph nodes of immunized animals are plated, and APCs from a non-immunized mouse are isolated, irradiated, pulsed with peptides, and added to the CD8+ T cells at an E:T ratio of 1:4. The cellular mixture is incubated overnight at 37° C. and the plates were developed the next day using an antibody against rat IgG. Spots were counted using a computer assisted video image analyzer with KS ELISPOT 4.0 software (Carol Zeiss Vision, Germany).
A few of these peptides were screened for their ability to elicit WT-1 peptide specific CTL responses in vivo using the methods described above.

The next data set relates to peptide pulsed APCs. Nature of the data set: ^51Cr cytotoxicity assay. Format: cell-based, mouse. The settings on record: E:T ratios 1:60-1:7, 4 hours. The procedure:
To detect the cytotoxic nature of the activated CD8+ T cells peptide specific CD8+ cells and irradiated peptide pulsed APCs were prepared as described above. The peptide sensitized APCs were labeled with 100 μCi of ^51Cr and incubated together with the CD8+ cells at E:T ratios varying from 1:60-1:7. After incubation together for 4 hours, supernatants were harvested and measured in a gamma counter.

A further data set deals with serum antibodies. The data set can be described thus: Competition study of serum antibodies to SWNT. The data set is classed as binding, Balb/c mice. The settings on record: high concentrations (>0.1 mg/ml).
The next data set relates to tumor expressing cells. The settings on record: previous reports; cited from earlier work.

Turning to “[111In]Rituximab: ^111In-labeled Rituximab targeting antibody, positive control”, in the data set on Daudi (CD20+, specific), the “immunoreactive fraction measured previously” value was 42%±17%. Moreover, the “femur % ID/g” value in the data set with GFP1/FFLuc1 Daudi tumor was determined as 11.4±3.32 % ID/g.

For SCLESQPTI [WTI-136], the “stimulation of CD8+ T cells that cross react with the native sequence” value (from here on “stimulation”) with CD8+ T cells is “unable”.

As for CMTWNQMNM [WTI-235A], in the data set on peptide pulsed APCs, the heteroclitic response entry is reported as “able to stimulate a heteroclitic response” and the “killing of peptide pulsed targets by CD8+ T cells” value was “killed pulsed targets”. For the same compound, in the data set on CD8+ T cells, the “immune response (WT-1 peptide specific CTL response in vivo)” value (shortened to “immune response”) is recorded as “robust immune response” and the “stimulation” value is on record as “stimulated CD8+ T cells that cross reacted with the native sequence”.

Turning to SYLESQPTI [WTI-136A], in the data set on CD8+ T cells, the “immune response” value was “robust immune response” and the “stimulation” value is given as “stimulated CD8+ T cells that cross reacted with the native sequence”.

In the case of `O=C(O)CCCC[C@@H]1SC[C@@H]2NC(=O)N[C@@H]21` [biotin], the “inhibition of serum antibodies” value with serum antibodies is recorded as “did not”.

On to ALLPAVSSL [WTI-10], for which the “stimulation” value in the data set with CD8+ T cells is “unable”.

As to AYLPAVSSL [WTI-10A], in the data set with CD8+ T cells, the “immune response” value was “robust immune response” and the “stimulation” value was “stimulated CD8+ T cells that cross reacted with the native sequence”.

On to RYFPNAPYL [WTI-126A], for which, in the data set on peptide pulsed APCs, the heteroclitic response entry is given as “able to stimulate a heteroclitic response” and the “killing of peptide pulsed targets by CD8+ T cells” value was “killed pulsed targets”.

Take CMTWNQMNL [WTI-235]: in the data set with tumor expressing cells, the “ability to kill tumor expressing cells or to produce a successful vaccine” value is listed as “limited ability”. In addition, the “stimulation” value in the data set on CD8+ T cells is recorded as “unable”.
